In patent publication US9809537B2, “Glycosidase inhibitors and uses thereof” (Alectos Therapeutics Inc., priority 2012, dated 2017):

Tests used:
[1] = test system: O-GlcNAcase in rat PC-12 cells; experiment: Cell-based ELISA of O-GlcNAcylated protein (RL-2 antibody); conditions: 24 h treatment, O-GlcNAcylated protein level
From the text: Assay for Determination of Cellular Activity for Compounds that Inhibit O-GlcNAcase Activity
Inhibition of O-GlcNAcase, which removes O-GlcNAc from cellular proteins, results in an increase in the level of O-GlcNAcylated protein in cells. An increase in O-GlcNAcylated protein can be measured by an antibody, such as RL-2, that binds to O-GlcNAcylated protein. The amount of O-GlcNAcylated protein:RL2 antibody interaction can be measured by enzyme linked immunosorbant assay (ELISA) procedures.
A variety of tissue culture cell lines, expressing endogenous levels of O-GlcNAcase, can be utilized; examples include rat PC-12, and human U-87, or SK—N—SH cells. […] If desired, the total protein concentration of samples is determined using 20 μL of the sample using the BCA method.
The ELISA portion of the assay is performed in a black Maxisorp 96-well plate that is coated overnight at 4° C. with 100 μL/well of the cell lysate (1:10 dilution of the lysate with PBS containing protease inhibitors, phosphatase inhibitors, and PMSF). […] The detection reaction is incubated for 15 minutes at room temperature and then read with excitation at 530 nm and emission at 590 nm.
The amount of O-GlcNAcylated protein, as detected by the ELISA assay, is plotted for each concentration of test compound using standard curve fitting algorithms for sigmoidal dose response curves. […]

[2] = Apparent permeability (Papp), bi-directional transport; assay type: in vitro ADME; conditions: pig, LLC-PK1, t=3 h, average of A to B and B to A, read-out: Papp LLC-PK1 cells
Protocol: Assay for Determination of Apparent Permeability (Papp)
Bi-directional transport is evaluated in LLC-PK1 cells in order to determine apparent permeability (Papp). LLC-PK1 cells can form a tight monolayer and therefore can be used to assess vectorial transport of compounds from basolateral to apical (B→A) and from apical to basolateral (A→B).
To determine Papp, LLC-PK1 cells are cultured in 96-well transwell culture plates (Millipore). Solutions containing the test compounds (1 μM) are prepared in Hank's Balanced Salt Solution with 10 mM HEPES. Substrate solution (150 μL) is added to either the apical (A) or the basolateral (B) compartment of the culture plate, and buffer (150 μL) is added to the compartment opposite to that containing the compound. At t=3 h, 50 μL samples are removed from both sides of monolayers dosed with test compound and placed in 96 well plates, scintillant (200 μL) or internal standard (100 μL labetolol 1 μM) is added to the samples and concentration is determined by liquid scintillation counting in a MicroBeta Wallac Trilux scintillation counter (Perkin Elmer Life Sciences, Boston, Mass.) or by LCMS/MS (Applied Biosystems SCIEX API 5000 triple quadruple mass spectrometer). [^3H]Verapamil (1 μM) is used as the positive control. The experiment is performed in triplicate.
The apparent permeability, Papp, is calculated by the following formula for samples taken at t=3 h:
[formula] Where: Volume of Receptor Chamber is 0.15 mL; Area of membrane is 0.11 cm^2; the Initial Concentration is the sum of the concentration measured in the donor plus concentration measured in receiver compartments at t=3 h; A in Concentration is concentration in the receiver compartment at 3 h; and A in Time is the incubation time (3×60×60=10800 s). Papp is expressed as 10^−6 cm/s. The Papp (LLC-PK1 cells) are the average of the Papp for transport from A to B and Papp for transport from B to A at t=3 h: […]

## CC(=O)NC[C@@H]1[C@@H](O)[C@H](O)[C@@H](CO)N1CCCc1ccc(-c2ccccc2)cc1 [Example 3, N-(((2R,3R,4R,5R)-1-(3-([1,1′-biphenyl]-4-yl)propyl)-3,4-dihydroxy-5-(hydroxymethyl)pyrrolidin-2-yl)methyl)acetamide]
[1]
  EC50: 665 nM
[2]
  Papp at 3 h, 1 μM: 5 ×10⁻⁶ cm/s
